According to paper PMC10678405, “2126. Safety, Tolerability, and Pharmacokinetics (PK) in Healthy Participants Following Single Dose Administration of Zosurabalpin, a Novel Pathogen-Specific Antibiotic for the Treatment of Serious Acinetobacter Infections” (Open Forum Infectious Diseases, 2023):
Where two headings read alike, the source gives them in different places.

Columns and labels:
[1] = single IV dose; for dose proportionality of plasma exposures (Cmax and AUCinf): healthy participants
Source text: (§1) Methods The entry-into-human study (BP41732) was a double-blind, placebo-controlled, randomized, single-and multiple ascending dose study in healthy participants. In Part 1 (SAD) of Study BP41732, participants were randomized 3:1 to receive IV zosurabalpin or placebo in sequential single ascending dose cohorts. The mass balance study (BP43532) was a non-randomized, non-controlled, open-label, single IV dose study in healthy male participants. […] Disclosures Andreas Guenther, PhD, F. Hoffmann-La Roche Ltd: Employee Amanda Messer, BPharm, Roche Products Ltd: Employee Mylène Giraudon, PharmD, F. Hoffmann-La Roche Ltd: Employee Katie Patel, MSc, Roche Products Limited: Employer|Roche Products Limited: Stocks/Bonds Erik J. Deurloo, MSc, F. Hoffmann-La Roche Ltd: Salary|F. Hoffmann-La Roche Ltd: Stocks/Bonds Michael Lobritz, MD, PhD, Roche: full time employee|Roche: full time employee

[2] = test system: healthy participants
Source text: as §1

[3] = healthy male participants, study BP43532, average
[4] = healthy participants, single IV dose 10 mg to 2000 mg

With CN1C(=O)[C@H](CCCCN)NC(=O)[C@H](CCCN)NCc2cccnc2Sc2cccc(-c3ccc(C(=O)O)cc3)c2CNC(=O)[C@@H]1Cc1c[nH]c2ccccc12 [zosurabalpin, Zosurabalpin] the “total [14C]-radioactivity recovered in feces, % of the administered dose” value [1, 3] was 48.0 % of the administered dose, the “total [14C]-radioactivity recovered in urine, % of the administered dose” value [1, 3] was 52.6 % of the administered dose and the “dose proportionality of plasma exposures (Cmax and AUCinf)” value ([1]; above 1000 mg up to 2000 mg) was “more than dose-proportionally”. The “dose proportionality of plasma exposures (Cmax and AUCinf)” value ([1]; up to 1000 mg) was “increased approximately dose-proportionally”, the “treatment-related infusion-related reactions (IRRs), participants affected / participants dosed” value ([2]; healthy male and female participants, single IV dose 10 mg to 2000 mg, studies BP41732 Part 1 (SAD) and BP43532, preliminary data) was 9/64 and the “changes in laboratory values, ECGs or vital signs compared to placebo” value [2, 4] was “did not show any clinically significant changes”. The “dose dependence of IRR occurrence” value [2, 4] was “appeared to be dose-dependent” and the “overall safety and tolerability” value ([2]; healthy participants, single IV doses of 10 mg to 2000 mg) was “safe and overall well tolerated”.
